The text below walks through data of patent publication US20230148214A1, “INDAZOLES AND AZAINDAZOLES AS LRRK2 INHIBITORS” (ESCAPE Bio, Inc., priority 2020, published 2023).

Broadly, the IC50 is the midpoint of a concentration-inhibition curve.

The assay deals with T1, LRRK2 WT (Homo sapiens, UniProt Q5S007).
T1 construct: purchased Life Technologies PR8604B
Description: LRRK2 Kinase Activity Assay (LanthaScreen TR-FRET), wild type. As to conditions: recombinant wild type LRRK2, 25 μM ATP, 400 nM LRRKtide, 60 min; class symbols. Format: biochemical. How it is done: LRRK2 kinase activity was measured using a LanthaScreen™ Kinase Activity Assay from ThermoFisher Scientific. Recombinant wild type or G2019S-LRRK2 protein (Life Technologies, PR8604B or PV4881, respectively), was incubated with a fluorescein-labeled peptide substrate called LRRKtide that is based upon ezrin/radixin/moesin (ERM) (Life Technologies, PV4901) in the presence of ATP and serially diluted compound. […] Compound-dependent inhibition of the TR-FRET signal was used to generate a concentration-response curve for IC50 determination.
After 60 min incubation at room temperature, the reaction was stopped by addition of 10 μL of 2×stop solution containing a final concentration of 2 nM anti-pERM antibody and 10 mM EDTA.
On the technique in general: In TR-FRET formats the signal depends on donor and acceptor labels being close together.

The structures appear in SMILES notation. Some results are limits rather than exact numbers.

T1 sequence (Q5S007 whole entry): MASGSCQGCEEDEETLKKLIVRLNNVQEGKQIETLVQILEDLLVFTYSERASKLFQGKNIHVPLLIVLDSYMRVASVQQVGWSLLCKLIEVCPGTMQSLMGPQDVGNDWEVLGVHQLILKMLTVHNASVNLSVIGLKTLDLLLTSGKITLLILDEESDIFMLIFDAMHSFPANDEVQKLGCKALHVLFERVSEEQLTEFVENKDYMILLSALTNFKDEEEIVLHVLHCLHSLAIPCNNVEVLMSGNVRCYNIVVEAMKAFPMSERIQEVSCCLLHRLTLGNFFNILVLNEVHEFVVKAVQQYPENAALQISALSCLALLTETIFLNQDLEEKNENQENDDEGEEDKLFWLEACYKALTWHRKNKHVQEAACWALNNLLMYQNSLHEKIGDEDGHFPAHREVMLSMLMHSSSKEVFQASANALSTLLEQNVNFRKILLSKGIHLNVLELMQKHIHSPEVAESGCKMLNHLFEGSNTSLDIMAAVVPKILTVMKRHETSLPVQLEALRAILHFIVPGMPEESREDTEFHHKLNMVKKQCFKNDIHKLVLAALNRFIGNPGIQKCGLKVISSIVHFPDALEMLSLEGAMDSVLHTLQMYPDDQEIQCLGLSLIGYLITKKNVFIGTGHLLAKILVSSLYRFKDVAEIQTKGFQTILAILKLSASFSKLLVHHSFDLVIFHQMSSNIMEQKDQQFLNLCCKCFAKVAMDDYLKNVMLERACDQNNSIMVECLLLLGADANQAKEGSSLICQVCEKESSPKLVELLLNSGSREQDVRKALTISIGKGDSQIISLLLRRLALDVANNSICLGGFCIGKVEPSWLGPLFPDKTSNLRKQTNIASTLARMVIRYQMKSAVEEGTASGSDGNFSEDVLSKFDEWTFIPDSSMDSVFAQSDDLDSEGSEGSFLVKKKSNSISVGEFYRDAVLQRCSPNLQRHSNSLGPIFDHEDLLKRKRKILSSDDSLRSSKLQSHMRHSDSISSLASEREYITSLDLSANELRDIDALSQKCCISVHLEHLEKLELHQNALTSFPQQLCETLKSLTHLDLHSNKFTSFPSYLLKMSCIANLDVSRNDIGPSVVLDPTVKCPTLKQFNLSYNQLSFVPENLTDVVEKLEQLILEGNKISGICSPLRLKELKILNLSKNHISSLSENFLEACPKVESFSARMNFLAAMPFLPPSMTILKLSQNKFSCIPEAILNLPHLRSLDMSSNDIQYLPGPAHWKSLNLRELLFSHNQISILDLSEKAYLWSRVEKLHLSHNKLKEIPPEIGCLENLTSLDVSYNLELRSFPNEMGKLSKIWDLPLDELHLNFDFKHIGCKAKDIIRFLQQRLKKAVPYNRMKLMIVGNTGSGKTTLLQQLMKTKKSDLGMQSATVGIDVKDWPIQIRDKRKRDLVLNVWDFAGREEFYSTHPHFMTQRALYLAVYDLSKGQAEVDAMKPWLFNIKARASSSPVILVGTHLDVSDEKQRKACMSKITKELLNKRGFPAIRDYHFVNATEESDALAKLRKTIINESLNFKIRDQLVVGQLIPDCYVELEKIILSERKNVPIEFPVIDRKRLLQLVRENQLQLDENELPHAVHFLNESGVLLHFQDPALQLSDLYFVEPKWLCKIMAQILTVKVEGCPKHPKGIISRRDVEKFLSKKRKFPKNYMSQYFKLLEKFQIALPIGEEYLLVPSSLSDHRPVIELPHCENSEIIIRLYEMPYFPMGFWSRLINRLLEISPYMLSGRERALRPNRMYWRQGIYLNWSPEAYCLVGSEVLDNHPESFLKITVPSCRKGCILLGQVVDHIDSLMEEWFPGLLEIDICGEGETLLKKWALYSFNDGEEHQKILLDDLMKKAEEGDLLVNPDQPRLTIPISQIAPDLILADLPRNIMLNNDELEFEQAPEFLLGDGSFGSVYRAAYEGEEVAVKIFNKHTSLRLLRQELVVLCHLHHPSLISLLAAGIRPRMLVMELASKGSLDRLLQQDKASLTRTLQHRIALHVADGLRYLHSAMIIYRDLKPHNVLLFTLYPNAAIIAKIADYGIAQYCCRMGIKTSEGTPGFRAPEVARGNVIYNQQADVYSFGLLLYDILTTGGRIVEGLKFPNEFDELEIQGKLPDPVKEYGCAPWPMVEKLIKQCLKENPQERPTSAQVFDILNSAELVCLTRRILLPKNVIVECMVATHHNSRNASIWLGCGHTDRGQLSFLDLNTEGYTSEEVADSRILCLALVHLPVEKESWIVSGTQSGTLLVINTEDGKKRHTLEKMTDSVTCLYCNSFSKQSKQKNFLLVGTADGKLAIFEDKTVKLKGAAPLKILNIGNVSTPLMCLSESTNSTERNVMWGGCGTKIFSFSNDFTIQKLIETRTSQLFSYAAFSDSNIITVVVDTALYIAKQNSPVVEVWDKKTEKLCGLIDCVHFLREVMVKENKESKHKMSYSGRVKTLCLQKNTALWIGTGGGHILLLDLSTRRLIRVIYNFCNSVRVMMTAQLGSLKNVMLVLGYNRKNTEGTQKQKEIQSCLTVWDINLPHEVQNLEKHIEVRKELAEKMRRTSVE

`Cc1cc(C#N)cc2c1[C@@H](Oc1ccc3[nH]nc(-c4cnco4)c3c1)CC2` (single isomer, unassigned) [Example 14, enantiomer 2, 7-Methyl-1-((3-(oxazol-5-yl)-1H-indazol-5-yl)oxy)-2,3-dihydro-1H-indene-5-carbonitrile]: the IC50 is under 100 nM.

With `N#Cc1cnc2c(c1)CCC[C@@H]2Oc1ccc2[nH]nc(-c3cnco3)c2c1` (single isomer, unassigned) [Example 16, enantiomer 2, 8-((3-(Oxazol-5-yl)-1H-indazol-5-yl)oxy)-5,6,7,8-tetrahydroquinoline-3-carbonitrile], the IC50 is under 100 nM.

With `N#Cc1ccc2c(c1)CCC[C@@H]2Oc1ccc2[nH]nc(-c3cnco3)c2c1` (single isomer, unassigned) [Example 18, enantiomer 2, 5-((3-(Oxazol-5-yl)-1H-indazol-5-yl)oxy)-5,6,7,8-tetrahydronaphthalene-2-carbonitrile], the IC50 is under 100 nM.

`Cc1c(C#N)ccc2c1CC[C@@H]2Oc1ccc2[nH]nc(-c3cnco3)c2c1` (single isomer, unassigned) [Example 22, enantiomer 2, 4-Methyl-1-((3-(oxazol-5-yl)-1H-indazol-5-yl)oxy)-2,3-dihydro-1H-indene-5-carbonitrile]: the IC50 is under 100 nM.

Take `N#Cc1cc2c(cc1F)[C@@H](Oc1ccc3[nH]nc(-c4cnco4)c3c1)CC2` (single isomer, unassigned) [Example 23, enantiomer 2, 6-Fluoro-1-((3-(oxazol-5-yl)-1H-indazol-5-yl)oxy)-2,3-dihydro-1H-indene-5-carbonitrile]: the IC50 was under 100 nM.

Consider `N#Cc1ccc2c(c1F)CC[C@@H]2Oc1ccc2[nH]nc(-c3cnco3)c2c1` (single isomer, unassigned) [Example 24, enantiomer 2, 4-Fluoro-1-((3-(oxazol-5-yl)-1H-indazol-5-yl)oxy)-2,3-dihydro-1H-indene-5-carbonitrile], for which the IC50 is under 100 nM.

On to `N#Cc1cc2c(cc1F)[C@@H](Nc1ccc3[nH]nc(-c4cnco4)c3c1)CC2` (single isomer, unassigned) [Example 25, enantiomer 2, 6-Fluoro-1-((3-(oxazol-5-yl)-1H-indazol-5-yl)amino)-2,3-dihydro-1H-indene-5-carbonitrile], for which the IC50 was under 100 nM.

`N#Cc1ccc2c(c1F)CC[C@@H]2Nc1ccc2[nH]nc(-c3cnco3)c2c1` (single isomer, unassigned) [Example 26, enantiomer 2, 4-Fluoro-1-((3-(oxazol-5-yl)-1H-indazol-5-yl)amino)-2,3-dihydro-1H-indene-5-carbonitrile]: the IC50 was under 100 nM.

As for `Cc1c(C#N)ccc2c1CC[C@@H]2Nc1ccc2[nH]nc(-c3cnco3)c2c1` (single isomer, unassigned) [Example 27, enantiomer 2, 4-methyl-1-((3-(oxazol-5-yl)-1H-indazol-5-yl)amino)-2,3-dihydro-1H-indene-5-carbonitrile], the IC50 is under 100 nM.

Turning to `Cc1cc2c(cc1C#N)CC[C@@H]2Nc1ccc2[nH]nc(-c3cnco3)c2c1` (single isomer, unassigned) [Example 28, enantiomer 2, 6-Methyl-1-((3-(oxazol-5-yl)-1H-indazol-5-yl)amino)-2,3-dihydro-1H-indene-5-carbonitrile], the IC50 was under 100 nM.

With `Cc1cc2c(cc1C#N)CC[C@H]2Oc1ccc2[nH]nc(-c3cnco3)c2c1` (single isomer, unassigned) [Example 29, enantiomer 2, 6-Methyl-1-((3-(oxazol-5-yl)-1H-indazol-5-yl)oxy)-2,3-dihydro-1H-indene-5-carbonitrile], the IC50 is under 100 nM.

For the compound `N#Cc1cccc2c1[C@@H](Oc1ccc3[nH]nc(-c4cnco4)c3c1)CC2` (single isomer, unassigned) [Example 37, enantiomer 2, 3-((3-(Oxazol-5-yl)-1H-indazol-5-yl)oxy)-2,3-dihydro-1H-indene-4-carbonitrile], the IC50 was under 100 nM.

Turning to `N#Cc1ccc2c(c1)CCC[C@@H]2Oc1ccc2[nH]nc(-c3ccnc(N4CCOCC4)c3)c2c1` (single isomer, unassigned) [Example 39, enantiomer 2, 5-((3-(2-Morpholinopyridin-4-yl)-1H-indazol-5-yl)oxy)-5,6,7,8-tetrahydronaphthalene-2-carbonitrile], the IC50 was under 100 nM.

Consider `COc1cc(-c2n[nH]c3ccc(N[C@H]4CCc5cc(C#N)ccc54)cc23)ccn1` (single isomer, unassigned) [Example 40, enantiomer 2, 1-((3-(2-Methoxypyridin-4-yl)-1H-indazol-5-yl)amino)-2,3-dihydro-1H-indene-5-carbonitrile], for which the IC50 is under 100 nM.

In the case of `N#Cc1cc2c(nn1)[C@@H](Oc1ccc3[nH]nc(-c4cnco4)c3c1)CC2` (single isomer, unassigned) [Example 41, enantiomer 2, 7-((3-(Oxazol-5-yl)-1H-indazol-5-yl)oxy)-6,7-dihydro-5H-cyclopenta[c]pyridazine-3-carbonitrile], the IC50 was under 100 nM.

In the case of `N#Cc1ccc2c(c1)CC(F)(F)[C@@H]2Nc1ccc2[nH]nc(-c3cnco3)c2c1` (single isomer, unassigned) [Example 42, enantiomer 2, 2,2-Difluoro-1-((3-(oxazol-5-yl)-1H-indazol-5-yl)amino)-2,3-dihydro-1H-indene-5-carbonitrile], the IC50 is under 100 nM.

Take `N#Cc1cnc2c(c1)C1CC1[C@@H]2Nc1ccc2[nH]nc(-c3cnco3)c2c1` (single isomer, unassigned) [Example 48, enantiomer 2, 6-((3-(Oxazol-5-yl)-1H-indazol-5-yl)amino)-4b,5,5a,6-tetrahydrocyclopropa[3,4]cyclopenta[1,2-b]pyridine-3-carbonitrile]: the IC50 was under 100 nM.

Regarding `N#Cc1ccc2c(c1F)CC[C@@H]2Oc1ccc2[nH]nc(-c3cnn(C(F)F)c3)c2c1` (single isomer, unassigned) [Example 51, enantiomer 2, 1-((3-(1-(Difluoromethyl)-1H-pyrazol-4-yl)-1H-indazol-5-yl)oxy)-4-fluoro-2,3-dihydro-1H-indene-5-carbonitrile], the IC50 was under 100 nM.

`Cc1c(C#N)ccc2c1CC[C@@H]2Nc1ccc2[nH]nc(-c3cnn(C(F)F)c3)c2c1` (single isomer, unassigned) [Example 52, enantiomer 2, 1-((3-(1-(Difluoromethyl)-1H-pyrazol-4-yl)-1H-indazol-5-yl)amino)-4-methyl-2,3-dihydro-1H-indene-5-carbonitrile]: the half-inhibitory concentration (IC50) is under 100 nM.

Turning to `COc1c(C#N)ccc2c1CCC[C@@H]2Nc1ccc2[nH]nc(-c3cnco3)c2c1` (single isomer, unassigned) [Example 101, enantiomer 2, 1-Methoxy-5-{[3-(1,3-oxazol-5-yl)-1H-indazol-5-yl]amino}-5,6,7,8-tetrahydronaphthalene-2-carbonitrile], the IC50 was under 100 nM.

Regarding `N#Cc1cnc2c(c1)CC[C@@H]2Oc1ccc2[nH]nc(-c3cnco3)c2c1` (single isomer, unassigned) [Example 103, enantiomer 2, 7-((3-(Oxazol-5-yl)-1H-indazol-5-yl)oxy)-6,7-dihydro-5H-cyclopenta[b]pyridine-3-carbonitrile], the IC50 is under 100 nM.

With `Cc1nc2c(cc1C#N)CCC[C@@H]2Nc1ccc2[nH]nc(-c3cnco3)c2c1` (single isomer, unassigned) [Example 106, enantiomer 2, 2-Methyl-8-((3-(oxazol-5-yl)-1H-indazol-5-yl)amino)-5,6,7,8-tetrahydroquinoline-3-carbonitrile], the IC50 was under 100 nM.

Take `Cc1c(C#N)cnc2c1CC[C@@H]2Nc1ccc2[nH]nc(-c3cnco3)c2c1` (single isomer, unassigned) [Example 108, enantiomer 2, 4-Methyl-7-((3-(oxazol-5-yl)-1H-indazol-5-yl)amino)-6,7-dihydro-5H-cyclopenta[b]pyridine-3-carbonitrile]: the IC50 was under 100 nM.

With `N#Cc1cc2c(nc1Cl)[C@@H](Nc1ccc3[nH]nc(-c4cnco4)c3c1)CCC2` (single isomer, unassigned) [Example 112, enantiomer 2, 2-Chloro-8-((3-(oxazol-5-yl)-1H-indazol-5-yl)amino)-5,6,7,8-tetrahydroquinoline-3-carbonitrile], the IC50 was under 100 nM.

For the compound `COc1c(C#N)ccc2c1CC[C@@H]2Nc1ccc2[nH]nc(-c3cnco3)c2c1` (single isomer, unassigned) [Example 113, enantiomer 2, 4-Methoxy-1-((3-(oxazol-5-yl)-1H-indazol-5-yl)amino)-2,3-dihydro-1H-indene-5-carbonitrile], the 50% inhibitory concentration (IC50) was under 100 nM.

Turning to `CCc1cc(-c2n[nH]c3ccc(N[C@H]4CCCc5cc(C#N)ccc54)cc23)ccn1` (single isomer, unassigned) [Example 116, enantiomer 2, 5-((3-(2-Ethylpyridin-4-yl)-1H-indazol-5-yl)amino)-5,6,7,8-tetrahydronaphthalene-2-carbonitrile], the IC50 was under 100 nM.

Regarding `Cc1c(C#N)ccc2c1CC[C@H]2Nc1ccc2[nH]nc(-c3cnoc3)c2c1` (single isomer, unassigned) [Example 118, enantiomer 2, 1-((3-(Isoxazol-4-yl)-1H-indazol-5-yl)amino)-4-methyl-2,3-dihydro-1H-indene-5-carbonitrile], the IC50 is under 100 nM.

Take `N#Cc1ccc2c(c1)CCC[C@H]2Nc1ccc2[nH]nc(-c3cnco3)c2c1` (single isomer, unassigned) [Example 119, enantiomer 2, 5-((3-(Oxazol-5-yl)-1H-indazol-5-yl)amino)-5,6,7,8-tetrahydronaphthalene-2-carbonitrile]: the IC50 was under 100 nM.
